Assay results: US20150038707A1, “PROCESS FOR MAKING CGRP RECEPTOR ANTAGONISTS” (Merck Sharp & Dohme Corp., priority 2012, published 2015)

Key:
[1] = tested on: Susceptible An. Gambiae; experiment: Bottle toxicity assay (Example 8), susceptible mosquitoes; assay type: in vivo, Anopheles gambiae
Protocol: (§1) Several compounds were tested to determine their toxic effect on knockdown resistant Anopheles gambiae mosquitoes and susceptible mosquitoes. Acetone and different amounts of pesticides were added to 250 ml bottles. In one bottle, only acetone was added as a control. The bottles were rotated in all directions while uncapped until all acetone was evaporated and the insecticide was coated onto the inside surfaces of the bottle. A number of knockdown resistant Anopheles gambiae mosquitoes were added to the bottle. The number of dead mosquitoes was recorded at 1 hour and 24 hours.

[2] = tested on: Ae. Aegypti, That strain (pyrethroid tolerant); experiment: Contact irritancy on pyrethroid tolerant mosquitoes (Example 5); assay type: in vivo
Protocol: (§2) Four compounds of formula (I) were tested for contact irritancy (i.e., movement away from the source after physical contact) at low doses on female Aedes aegypti (Thailand strain) mosquitoes. The contact irritant response was determined by use of the contact irritant assay disclosed by Grieco et al. in “A New Classification System for the Actions of IRS Chemicals Traditionally Used for Malaria Control,” Plos One, Issue 8 (2007) (available at www.plosone.org). The assay used was a cylindrical assembly that included a metal treatment end to which 10 mosquitoes were introduced and a clear receiving chamber. The treatment end included a netting strip (nylon organdy) that was treated with the insecticide of interest at the relevant dose. A butterfly valve separated the treatment end from the remainder of the assembly.
(§3) Each composition was applied to the netting strip at a varied dose via a 1.5 ml acetone solution. Four (4) treatment concentrations were used—0.0025 nmol/cm^2, 0.025 nmol/cm^2, 0.25 nmol/cm^2 and 2.5 nmol/cm^2. Netting was allowed to dry for 15 minutes prior to placement in the cylinder. Control assays were performed with netting treated with acetone only.
(§4) For each run, 10 mosquitoes were transferred into the treatment end of the assembly and, after 30 seconds, the butterfly valve was opened. The valve was closed after 10 minutes and the number of mosquitoes in the clear end (i.e., the number of escaped mosquitoes) was tested.
(§5) The contact irritancy protocol of Example 2 was used to determine contact irritancy against mosquitoes (Ae. Aegypti) that had acquired metabolic resistance against pyrethroids. Alphacypermethrin and transfluthrin were also tested. Three mosquito strains were tested—Houston which is pyrethroid susceptible, That which is pyrethroid tolerant and Isla Mujer which is metabolically pyrethroid resistant.

[3] = tested on: Ae. Aegypti strains Houston, That and Isla Mujer; experiment: Spatial repellency on metabolically resistant mosquitoes (Example 6); assay type: in vivo
Protocol: (§6) The four compounds of formula I described in Example 2 were tested for spatial repellency (directed movement away from the chemical source without the insect making physical contact with the treated surface) at low doses on female Aedes aegypti (Thailand strain) mosquitoes. The spatial repellency response was determined by use of the spatial repellency assay disclosed by Grieco et al. in “A New Classification System for the Actions of IRS Chemicals Traditionally Used for Malaria Control” in Plos One, Issue 8 (2007) (available at www.plosone.org) which is incorporated herein by reference for all relevant and consistent purposes. The assay used was a cylindrical assembly that included a treatment chamber at one end and a control chamber at the other end. The treatment chamber included a netting strip (nylon organdy) that was treated with the insecticide of interest at the relevant dose. The treatment chamber and control chamber were connected by a clear cylinder and were separated from the clear cylinder by butterfly valves. Twenty (20) mosquitoes were introduced into the clear central chamber and the butterfly valves were opened after 30 seconds. After 10 minutes, the valves were closed and the number of mosquitoes in each chamber was counted.
as §5, with “spatial repellency” for “contact irritancy”, “3” for “2”, “DDT” for “Alphacypermethrin”

[4] = tested on: female Aedes aegypti (Thailand strain) mosquitoes; experiment: Contact irritancy and spatial repellency screening (Example 4); assay type: in vivo; conditions: Dosage 25 nmol/cm^2; mapped with 3000 other compounds
Protocol: as §2, §6
Dosage was 25 nmol/cm^2. Several known compounds were also mapped for comparison—alphacypermethrin, cypermethrin, propoxur, bendiocarb, permethrin, SS220, DDT, deet and chlorpyrifos.

[5] = tested on: Ae. Aegypti, Isla Mujer strain (metabolically pyrethroid resistant); experiment: Contact irritancy on metabolically resistant mosquitoes (Example 5); assay type: in vivo
Protocol: as §2, §3, §4, §5

[6] = tested on: Ae. aegypti Thai strain (pyrethroid tolerant); experiment: Toxicity assay on treated netting (Example 7), Thai strain; assay type: in vivo
Protocol: (§7) Several compounds were tested to determine their toxic effect on Ae. aegypti mosquitoes. Three mosquito strains were tested—Houston which is pyrethroid susceptible, That which is pyrethroid tolerant and Isla Mujer which is metabolically pyrethroid resistant.
(§8) The toxicity assay involved a single chamber to which treated netting was added. Twenty (20) mosquitoes were transferred to the chamber. After 1 hour, the number of knocked down mosquitoes was recorded and all mosquitoes were transferred to holding cartoons. The mosquitoes were given a 10% sucrose-soaked cotton ball and returned to the insectary. Mortaility was measured after 24 hours. A control assay using acetone-treated netting was used. Six replicates were performed at each treatment concentration.

[7] = tested on: Ae. aegypti Isla mujeres strain (metabolically pyrethroid resistant); experiment: Toxicity assay on treated netting (Example 7), Isla mujeres strain; assay type: in vivo
Protocol: as §7, §8

[8] = tested on: KDR Resisant An. Gambiae; experiment: Bottle toxicity assay (Example 8), knockdown resistant mosquitoes; assay type: in vivo, Anopheles gambiae
Protocol: as §1

[9] = Dose 0.00025 μg/bottle, Strain Tested F123, Time 1 hour
[10] = Dose 0.00025 μg/bottle, Strain Tested F123, Time 24 hours
[11] = Dose 0.0025 μg/bottle, Strain Tested F122, Time 1 hour
[12] = Dose 0.0025 μg/bottle, Strain Tested F122, Time 24 hours
[13] = Dose 0.0025 μg/bottle, Strain Tested F123, Time 1 hour
[14] = Dose 0.0025 μg/bottle, Strain Tested F123, Time 24 hours
[15] = Dose 0.025 μg/bottle, Strain Tested F122, Time 1 hour
[16] = Dose 0.025 μg/bottle, Strain Tested F122, Time 24 hours
[17] = Dose 0.025 μg/bottle, Strain Tested F123, Time 1 hour
[18] = Dose 0.025 μg/bottle, Strain Tested F123, Time 24 hours
[19] = Dose 0.25 μg/bottle, Strain Tested F122, Time 1 hour
[20] = Dose 0.25 μg/bottle, Strain Tested F122, Time 24 hours
[21] = Dose 0.25 μg/bottle, Strain Tested F123, Time 1 hour
[22] = Dose 0.25 μg/bottle, Strain Tested F123, Time 24 hours
[23] = Dose 2.5 μg/bottle, Strain Tested F122, Time 1 hour
[24] = Dose 2.5 μg/bottle, Strain Tested F122, Time 24 hours
[25] = Dose 2.5 μg/bottle, Strain Tested F123, Time 1 hour
[26] = Dose 2.5 μg/bottle, Strain Tested F123, Time 24 hours
[27] = Dose 25 μg/bottle, Strain Tested F123, Time 1 hour
[28] = Dose 25 μg/bottle, Strain Tested F123, Time 24 hours
[29] = Dose 0.025 nm/cm^2, Time 1 hour
[30] = Dose 0.025 nm/cm^2, Time 24 hours
[31] = Dose 0.0725 nm/cm^2, Time 1 hour
[32] = Dose 0.0725 nm/cm^2, Time 24 hours
[33] = Dose 0.125 nm/cm^2, Time 1 hour
[34] = Dose 0.125 nm/cm^2, Time 24 hours
[35] = Dose 2.5 nm/cm^2, Time 24 hours

## CC1(C)C(C=C(Cl)C(F)(F)F)C1C(=O)OCc1ccc(F)c(C(F)(F)F)c1F (stereo not shown) [Compound 1405]
[1]; [9]
  Susceptible An. Gambiae (% dead (SE)): 100%
[1]; [10]
  Susceptible An. Gambiae (% dead (SE)): 87%
[1]; [11]
  Susceptible An. Gambiae (% dead (SE)): 100%
[1]; [12]
  Susceptible An. Gambiae (% dead (SE)): 95%
[1]; [13]
  Susceptible An. Gambiae (% dead (SE)): 100%
[1]; [14]
  Susceptible An. Gambiae (% dead (SE)): 100%
[1]; [15]
  Susceptible An. Gambiae (% dead (SE)): 100%
[1]; [16]
  Susceptible An. Gambiae (% dead (SE)): 100%
[1]; [17]
  Susceptible An. Gambiae (% dead (SE)): 100%
[1]; [18]
  Susceptible An. Gambiae (% dead (SE)): 100%
[1]; [19]
  Susceptible An. Gambiae (% dead (SE)): 100%
[1]; [20]
  Susceptible An. Gambiae (% dead (SE)): 100%
[1]; [21]
  Susceptible An. Gambiae (% dead (SE)): 100%
[1]; [22]
  Susceptible An. Gambiae (% dead (SE)): 100%
[1]; [23]
  Susceptible An. Gambiae (% dead (SE)): 100%
[1]; [24]
  Susceptible An. Gambiae (% dead (SE)): 100%
[1]; [25]
  Susceptible An. Gambiae (% dead (SE)): 100%
[1]; [26]
  Susceptible An. Gambiae (% dead (SE)): 100%
[1]; [27]
  Susceptible An. Gambiae (% dead (SE)): 100%
[1]; [28]
  Susceptible An. Gambiae (% dead (SE)): 100%
[2]
  contact irritancy, tolerant strain (FIG. 4): contact irritants for tolerant strains
[3]
  spatial repellency, all strains (FIG. 5): spatial repellants for all strains
[4]
  contact irritancy and spatial repellency relative to screened compounds (FIG. 3): superior contact irritancy and spatial repellency relative to most screened compounds
[5]
  contact irritancy, resistant strain (FIG. 4): effective in resistant strains
[6]; [29]
  Thai (% dead (SE)): 83.3%
[6]; [30]
  Thai (% dead (SE)): 15%
[6]; [31]
  Thai (% dead (SE)): 100%
[6]; [32]
  Thai (% dead (SE)): 100%
[6]; [33]
  Thai (% dead (SE)): 100%
[6]; [34]
  Thai (% dead (SE)): 100%
[6]; Dose 2.5 nm/cm^2, Time 1 hour
  Thai (% dead (SE)): 100%
[6]; [35]
  Thai (% dead (SE)): 100%
[7]; [29]
  Isla mujeres (% dead (SE)): 100%
[7]; [30]
  Isla mujeres (% dead (SE)): 11.84%
[7]; [31]
  Isla mujeres (% dead (SE)): 100%
[7]; [32]
  Isla mujeres (% dead (SE)): 9.69%
[7]; [33]
  Isla mujeres (% dead (SE)): 100%
[7]; [34]
  Isla mujeres (% dead (SE)): 9.89%
[7]; Dose 0.25 nm/cm^2, Time 1 hour
  Isla mujeres (% dead (SE)): 100%
[7]; Dose 0.25 nm/cm^2, Time 24 hours
  Isla mujeres (% dead (SE)): 100%
[7]; Dose 2.5 nm/cm^2, Time 1 hour
  Isla mujeres (% dead (SE)): 100%
[7]; [35]
  Isla mujeres (% dead (SE)): 100%
[7]; summary of Table 2
  toxicity to resistant populations compared with standard compounds: more toxic to resistant populations than permethrin, matfluthrin and transfluthrin
[8]; [9]
  KDR Resisant An. Gambiae (% dead (SE)): 55%
[8]; [10]
  KDR Resisant An. Gambiae (% dead (SE)): 37%
[8]; [11]
  KDR Resisant An. Gambiae (% dead (SE)): 100%
[8]; [12]
  KDR Resisant An. Gambiae (% dead (SE)): 66%
[8]; [13]
  KDR Resisant An. Gambiae (% dead (SE)): 92%
[8]; [14]
  KDR Resisant An. Gambiae (% dead (SE)): 100%
[8]; [15]
  KDR Resisant An. Gambiae (% dead (SE)): 100%
[8]; [16]
  KDR Resisant An. Gambiae (% dead (SE)): 100%
[8]; [17]
  KDR Resisant An. Gambiae (% dead (SE)): 100%
[8]; [18]
  KDR Resisant An. Gambiae (% dead (SE)): 100%
[8]; [19]
  KDR Resisant An. Gambiae (% dead (SE)): 100%
[8]; [20]
  KDR Resisant An. Gambiae (% dead (SE)): 100%
[8]; [21]
  KDR Resisant An. Gambiae (% dead (SE)): 100%
[8]; [22]
  KDR Resisant An. Gambiae (% dead (SE)): 100%
[8]; [23]
  KDR Resisant An. Gambiae (% dead (SE)): 100%
[8]; [24]
  KDR Resisant An. Gambiae (% dead (SE)): 100%
[8]; [25]
  KDR Resisant An. Gambiae (% dead (SE)): 100%
[8]; [26]
  KDR Resisant An. Gambiae (% dead (SE)): 100%
[8]; [27]
  KDR Resisant An. Gambiae (% dead (SE)): 100%
[8]; [28]
  KDR Resisant An. Gambiae (% dead (SE)): 100%
[8]; summary of Table 3
  effectiveness against knockdown resistant strains: effective against knockdown resistant strains
